The results in this text go back to publication PMC6757289, “Design and Characterization of SGK3-PROTAC1, an Isoform Specific SGK3 Kinase PROTAC Degrader” (ACS Chemical Biology, 2019).

Holding throughout (assay): kinase profiling panel
What all share (type): biochemical

One experiment deals with T1, PDK1 (Homo sapiens, UniProt O15530).
T1 sequence (O15530 1-556): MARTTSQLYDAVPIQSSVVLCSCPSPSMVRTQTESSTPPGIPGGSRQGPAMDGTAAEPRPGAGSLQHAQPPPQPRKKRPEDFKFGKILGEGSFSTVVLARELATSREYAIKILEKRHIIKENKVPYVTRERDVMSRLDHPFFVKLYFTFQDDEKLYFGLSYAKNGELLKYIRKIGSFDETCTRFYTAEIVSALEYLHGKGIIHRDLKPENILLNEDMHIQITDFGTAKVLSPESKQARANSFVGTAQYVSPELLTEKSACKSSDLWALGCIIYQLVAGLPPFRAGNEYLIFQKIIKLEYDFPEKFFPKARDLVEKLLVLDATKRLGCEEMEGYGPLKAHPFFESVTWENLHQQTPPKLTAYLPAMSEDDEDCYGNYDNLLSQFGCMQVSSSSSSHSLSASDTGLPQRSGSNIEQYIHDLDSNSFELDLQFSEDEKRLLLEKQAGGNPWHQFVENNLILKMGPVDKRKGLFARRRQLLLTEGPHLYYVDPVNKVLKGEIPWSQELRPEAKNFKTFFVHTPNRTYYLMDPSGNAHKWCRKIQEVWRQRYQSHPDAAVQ
The settings on record: read-out: % Activity Remaining. An excerpt: (§1) Protein kinase profiling against a Dundee panel of 140 protein kinases was undertaken at the International Centre for Protein Kinase Profiling. The result for each kinase was presented as a mean kinase activity of the reaction taken in triplicate relative to a control sample treated with DMSO. Assay conditions and abbreviations are available at http://www.kinase-screen.mrc.ac.uk.

A further experiment concerns the target YES1 (Homo sapiens, UniProt P07947). The settings on record: read-out: % Activity Remaining.
Source text: as §1

Another experiment has as its target WNK1 (Homo sapiens, UniProt Q9H4A3). The settings on record: read-out: % Activity Remaining.
Source text: as §1

Another experiment concerns the target T2, IKK beta (Homo sapiens, UniProt O14920).
T2 sequence (O14920 1-756): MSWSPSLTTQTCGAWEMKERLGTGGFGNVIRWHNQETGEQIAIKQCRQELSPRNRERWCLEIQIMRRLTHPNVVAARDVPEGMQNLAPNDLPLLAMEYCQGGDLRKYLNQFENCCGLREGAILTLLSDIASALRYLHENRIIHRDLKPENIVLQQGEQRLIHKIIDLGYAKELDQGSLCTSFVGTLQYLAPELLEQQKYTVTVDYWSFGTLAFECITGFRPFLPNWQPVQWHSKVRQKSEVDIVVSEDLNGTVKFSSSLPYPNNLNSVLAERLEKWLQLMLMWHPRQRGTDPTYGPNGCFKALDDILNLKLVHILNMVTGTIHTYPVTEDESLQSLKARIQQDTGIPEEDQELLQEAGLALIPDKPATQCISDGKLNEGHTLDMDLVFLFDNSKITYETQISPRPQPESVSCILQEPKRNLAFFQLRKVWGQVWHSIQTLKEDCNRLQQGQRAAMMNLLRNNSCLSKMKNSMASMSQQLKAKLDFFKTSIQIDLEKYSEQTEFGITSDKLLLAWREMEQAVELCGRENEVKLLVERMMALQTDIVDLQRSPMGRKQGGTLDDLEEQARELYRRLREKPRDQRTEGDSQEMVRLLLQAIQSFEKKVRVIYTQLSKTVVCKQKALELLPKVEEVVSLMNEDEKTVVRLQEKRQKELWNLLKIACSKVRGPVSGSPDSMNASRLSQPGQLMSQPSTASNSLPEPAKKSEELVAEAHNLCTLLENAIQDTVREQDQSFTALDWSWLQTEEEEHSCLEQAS
Particulars: read-out: % Activity Remaining.
Source text: as §1

For a further experiment, the target named is MSK1 (Homo sapiens, UniProt O75582). Particulars: read-out: % Activity Remaining.
Sequence of MSK1 (O75582 whole entry): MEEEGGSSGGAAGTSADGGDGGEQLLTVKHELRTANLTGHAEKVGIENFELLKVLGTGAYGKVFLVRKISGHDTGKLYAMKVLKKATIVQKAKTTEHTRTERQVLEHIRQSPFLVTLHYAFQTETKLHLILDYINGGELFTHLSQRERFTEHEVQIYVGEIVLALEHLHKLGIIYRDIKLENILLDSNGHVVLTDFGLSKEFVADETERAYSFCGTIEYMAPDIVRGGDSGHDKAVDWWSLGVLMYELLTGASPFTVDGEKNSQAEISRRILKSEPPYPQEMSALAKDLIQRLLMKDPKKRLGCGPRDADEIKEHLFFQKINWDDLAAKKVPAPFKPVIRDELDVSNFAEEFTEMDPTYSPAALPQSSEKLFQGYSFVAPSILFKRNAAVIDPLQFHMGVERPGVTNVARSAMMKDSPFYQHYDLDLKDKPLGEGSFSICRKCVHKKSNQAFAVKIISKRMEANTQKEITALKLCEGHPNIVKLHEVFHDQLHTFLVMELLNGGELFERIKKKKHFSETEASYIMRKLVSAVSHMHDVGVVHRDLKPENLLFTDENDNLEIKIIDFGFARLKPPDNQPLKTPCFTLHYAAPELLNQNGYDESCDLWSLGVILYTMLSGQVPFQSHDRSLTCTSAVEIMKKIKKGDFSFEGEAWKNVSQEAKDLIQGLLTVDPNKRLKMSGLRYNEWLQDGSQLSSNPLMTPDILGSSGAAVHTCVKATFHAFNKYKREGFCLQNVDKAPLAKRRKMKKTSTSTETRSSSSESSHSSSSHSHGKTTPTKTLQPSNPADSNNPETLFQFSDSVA
Source text: as §1

For a further experiment, the target named is TIE2 (Homo sapiens, UniProt Q02763). Particulars: read-out: % Activity Remaining.
Sequence of TIE2 (Q02763 23-1124): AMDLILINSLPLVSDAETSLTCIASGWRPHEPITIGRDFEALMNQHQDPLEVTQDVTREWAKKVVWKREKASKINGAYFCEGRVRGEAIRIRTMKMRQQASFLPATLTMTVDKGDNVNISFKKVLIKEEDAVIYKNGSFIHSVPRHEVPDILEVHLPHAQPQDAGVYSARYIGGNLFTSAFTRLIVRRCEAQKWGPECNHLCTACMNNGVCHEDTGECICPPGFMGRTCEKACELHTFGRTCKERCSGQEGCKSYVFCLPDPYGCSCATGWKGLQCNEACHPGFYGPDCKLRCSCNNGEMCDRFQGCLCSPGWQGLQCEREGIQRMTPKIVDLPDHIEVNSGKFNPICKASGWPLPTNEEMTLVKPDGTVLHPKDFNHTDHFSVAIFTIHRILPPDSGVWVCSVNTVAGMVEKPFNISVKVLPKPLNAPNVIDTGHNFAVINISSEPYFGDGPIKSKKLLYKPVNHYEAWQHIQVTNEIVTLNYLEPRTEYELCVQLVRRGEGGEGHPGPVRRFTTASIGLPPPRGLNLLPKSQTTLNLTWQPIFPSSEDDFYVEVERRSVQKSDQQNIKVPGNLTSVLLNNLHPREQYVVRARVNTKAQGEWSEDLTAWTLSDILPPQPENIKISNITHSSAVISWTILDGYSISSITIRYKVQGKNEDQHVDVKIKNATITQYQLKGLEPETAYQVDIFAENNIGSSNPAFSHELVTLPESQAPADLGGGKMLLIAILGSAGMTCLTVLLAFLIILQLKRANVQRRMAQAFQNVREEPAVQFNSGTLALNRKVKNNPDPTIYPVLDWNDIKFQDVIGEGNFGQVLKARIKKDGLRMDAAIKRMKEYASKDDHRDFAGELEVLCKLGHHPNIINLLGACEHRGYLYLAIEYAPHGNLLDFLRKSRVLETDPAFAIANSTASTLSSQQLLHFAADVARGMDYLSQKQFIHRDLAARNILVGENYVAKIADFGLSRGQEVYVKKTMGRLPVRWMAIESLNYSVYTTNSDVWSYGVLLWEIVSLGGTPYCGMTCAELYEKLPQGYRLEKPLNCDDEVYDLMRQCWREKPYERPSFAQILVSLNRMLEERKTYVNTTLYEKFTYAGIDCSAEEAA
Source text: as §1

The test system of the next experiment is PHK. Particulars: 1 µM.
Source text: as §1

For the next experiment, the target named is T3, LKB1 (Homo sapiens, UniProt Q15831).
T3 sequence (Q15831 1-433): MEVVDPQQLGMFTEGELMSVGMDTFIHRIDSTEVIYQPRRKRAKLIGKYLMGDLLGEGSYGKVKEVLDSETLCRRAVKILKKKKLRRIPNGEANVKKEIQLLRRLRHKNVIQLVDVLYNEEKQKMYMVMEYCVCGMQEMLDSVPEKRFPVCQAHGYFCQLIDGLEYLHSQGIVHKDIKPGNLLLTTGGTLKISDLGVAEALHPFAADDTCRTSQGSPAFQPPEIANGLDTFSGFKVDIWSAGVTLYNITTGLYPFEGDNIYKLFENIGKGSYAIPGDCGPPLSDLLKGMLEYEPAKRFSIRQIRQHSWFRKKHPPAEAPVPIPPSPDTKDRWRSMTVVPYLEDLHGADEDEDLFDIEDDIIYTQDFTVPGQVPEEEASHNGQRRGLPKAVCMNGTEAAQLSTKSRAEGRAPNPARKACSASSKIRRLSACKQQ
T3 sequence (Q7RTN6 1-431 partner): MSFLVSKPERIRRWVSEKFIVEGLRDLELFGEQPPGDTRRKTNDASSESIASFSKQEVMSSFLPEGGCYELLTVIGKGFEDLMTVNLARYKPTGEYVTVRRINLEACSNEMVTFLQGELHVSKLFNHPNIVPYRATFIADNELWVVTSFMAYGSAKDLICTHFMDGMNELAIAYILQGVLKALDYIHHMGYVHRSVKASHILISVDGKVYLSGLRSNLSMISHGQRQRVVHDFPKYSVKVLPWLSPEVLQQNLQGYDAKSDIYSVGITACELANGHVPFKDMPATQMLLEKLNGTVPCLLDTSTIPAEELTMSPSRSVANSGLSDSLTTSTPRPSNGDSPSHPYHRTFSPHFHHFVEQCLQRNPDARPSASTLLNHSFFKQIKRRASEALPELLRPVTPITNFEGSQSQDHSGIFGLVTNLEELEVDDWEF
T3 sequence (Q9Y376 1-341 partner): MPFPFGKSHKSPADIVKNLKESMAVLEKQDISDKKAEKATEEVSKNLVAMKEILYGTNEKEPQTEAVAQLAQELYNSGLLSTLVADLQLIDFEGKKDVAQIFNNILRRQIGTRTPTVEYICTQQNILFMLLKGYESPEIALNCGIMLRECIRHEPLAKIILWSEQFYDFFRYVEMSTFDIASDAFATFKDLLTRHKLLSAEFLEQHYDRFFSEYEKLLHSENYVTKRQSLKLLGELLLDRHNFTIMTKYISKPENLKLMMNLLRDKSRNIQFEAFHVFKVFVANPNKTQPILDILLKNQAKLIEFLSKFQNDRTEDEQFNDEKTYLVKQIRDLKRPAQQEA
Particulars: read-out: % Activity Remaining.
Source text: as §1

Like-named read-outs stand apart in the source and are kept apart here.

Sequence of YES1 (P07947 whole entry): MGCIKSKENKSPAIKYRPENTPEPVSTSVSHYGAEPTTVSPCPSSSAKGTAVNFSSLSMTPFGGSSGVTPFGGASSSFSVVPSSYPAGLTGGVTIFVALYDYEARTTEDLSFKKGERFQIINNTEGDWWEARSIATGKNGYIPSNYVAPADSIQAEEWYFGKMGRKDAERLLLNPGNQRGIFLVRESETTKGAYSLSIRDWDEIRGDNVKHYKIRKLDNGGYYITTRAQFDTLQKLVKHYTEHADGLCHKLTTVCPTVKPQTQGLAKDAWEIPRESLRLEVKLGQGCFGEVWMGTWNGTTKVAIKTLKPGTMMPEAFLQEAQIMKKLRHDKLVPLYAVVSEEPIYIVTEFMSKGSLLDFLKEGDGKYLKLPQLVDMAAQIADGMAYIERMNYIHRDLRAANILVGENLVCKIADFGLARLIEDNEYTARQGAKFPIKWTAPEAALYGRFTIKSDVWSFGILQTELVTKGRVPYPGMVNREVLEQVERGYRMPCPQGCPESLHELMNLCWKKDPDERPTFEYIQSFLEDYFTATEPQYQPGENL
Sequence of WNK1 (Q9H4A3 whole entry): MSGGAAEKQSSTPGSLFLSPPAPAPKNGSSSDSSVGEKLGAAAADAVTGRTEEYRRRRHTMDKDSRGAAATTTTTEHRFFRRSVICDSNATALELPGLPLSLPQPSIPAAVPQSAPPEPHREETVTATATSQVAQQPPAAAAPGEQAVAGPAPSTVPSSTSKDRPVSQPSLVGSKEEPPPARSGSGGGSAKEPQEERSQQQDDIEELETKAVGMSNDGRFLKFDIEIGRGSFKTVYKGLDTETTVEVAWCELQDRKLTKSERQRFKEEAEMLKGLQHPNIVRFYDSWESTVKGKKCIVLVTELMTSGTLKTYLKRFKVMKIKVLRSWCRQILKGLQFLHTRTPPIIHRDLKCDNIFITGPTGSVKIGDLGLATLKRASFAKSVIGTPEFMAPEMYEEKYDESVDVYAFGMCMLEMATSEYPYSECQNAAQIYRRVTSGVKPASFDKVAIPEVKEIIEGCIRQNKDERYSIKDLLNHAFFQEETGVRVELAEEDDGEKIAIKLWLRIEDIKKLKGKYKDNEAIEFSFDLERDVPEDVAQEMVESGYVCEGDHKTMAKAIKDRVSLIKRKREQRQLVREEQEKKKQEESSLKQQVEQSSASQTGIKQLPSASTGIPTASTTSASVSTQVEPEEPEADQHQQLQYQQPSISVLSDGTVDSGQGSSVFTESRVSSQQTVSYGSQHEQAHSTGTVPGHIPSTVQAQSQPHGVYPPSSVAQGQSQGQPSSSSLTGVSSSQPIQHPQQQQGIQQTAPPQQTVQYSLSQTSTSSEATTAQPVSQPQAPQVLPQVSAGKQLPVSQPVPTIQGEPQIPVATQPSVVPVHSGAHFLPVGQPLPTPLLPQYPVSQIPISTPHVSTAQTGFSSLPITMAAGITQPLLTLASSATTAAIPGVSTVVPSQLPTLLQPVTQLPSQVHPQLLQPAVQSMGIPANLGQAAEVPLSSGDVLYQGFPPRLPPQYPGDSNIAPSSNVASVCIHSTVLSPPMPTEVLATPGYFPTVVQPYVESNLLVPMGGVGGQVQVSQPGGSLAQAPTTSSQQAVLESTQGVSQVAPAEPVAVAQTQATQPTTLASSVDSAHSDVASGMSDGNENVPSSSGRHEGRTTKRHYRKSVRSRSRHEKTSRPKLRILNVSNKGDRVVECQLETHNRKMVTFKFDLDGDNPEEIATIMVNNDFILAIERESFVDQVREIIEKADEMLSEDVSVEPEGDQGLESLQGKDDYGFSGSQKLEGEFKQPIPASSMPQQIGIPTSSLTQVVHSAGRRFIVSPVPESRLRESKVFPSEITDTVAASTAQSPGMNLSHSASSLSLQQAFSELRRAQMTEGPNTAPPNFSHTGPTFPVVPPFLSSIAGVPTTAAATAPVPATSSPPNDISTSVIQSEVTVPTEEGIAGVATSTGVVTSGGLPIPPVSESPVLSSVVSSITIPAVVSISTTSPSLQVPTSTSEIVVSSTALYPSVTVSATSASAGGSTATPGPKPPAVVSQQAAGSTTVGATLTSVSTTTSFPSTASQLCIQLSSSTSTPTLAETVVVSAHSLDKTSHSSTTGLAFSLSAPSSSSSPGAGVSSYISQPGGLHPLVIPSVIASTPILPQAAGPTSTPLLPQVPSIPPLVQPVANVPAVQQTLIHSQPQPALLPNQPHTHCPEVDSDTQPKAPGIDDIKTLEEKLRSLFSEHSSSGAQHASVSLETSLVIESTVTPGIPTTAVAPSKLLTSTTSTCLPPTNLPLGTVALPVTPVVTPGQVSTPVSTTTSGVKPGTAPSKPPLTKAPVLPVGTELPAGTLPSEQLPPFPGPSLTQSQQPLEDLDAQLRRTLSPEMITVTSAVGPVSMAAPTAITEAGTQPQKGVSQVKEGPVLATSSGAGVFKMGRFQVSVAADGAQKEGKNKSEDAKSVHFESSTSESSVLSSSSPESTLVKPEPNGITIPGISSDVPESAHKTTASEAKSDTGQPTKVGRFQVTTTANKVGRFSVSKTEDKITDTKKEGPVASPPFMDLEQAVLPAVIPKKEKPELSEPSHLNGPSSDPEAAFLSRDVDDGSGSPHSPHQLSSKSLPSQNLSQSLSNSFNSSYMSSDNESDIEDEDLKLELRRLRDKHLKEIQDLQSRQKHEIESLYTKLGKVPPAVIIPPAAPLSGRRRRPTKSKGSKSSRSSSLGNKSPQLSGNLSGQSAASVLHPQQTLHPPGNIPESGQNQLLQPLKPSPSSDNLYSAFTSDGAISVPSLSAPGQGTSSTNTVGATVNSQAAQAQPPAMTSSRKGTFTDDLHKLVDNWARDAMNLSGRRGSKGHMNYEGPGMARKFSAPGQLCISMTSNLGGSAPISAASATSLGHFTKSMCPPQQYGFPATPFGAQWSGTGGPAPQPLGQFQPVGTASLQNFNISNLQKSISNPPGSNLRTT

On to `COc1ccc(Cl)c(S(=O)(=O)Nc2ccc(-c3nc(OC[C@H]4CNCCO4)c4c(C)n[nH]c4n3)cc2)c1` [290-R, reference compound], for which the remaining activity at 1 µM on PDK1 was 117%; on YES1 it was 92%; on WNK1, 110%; on IKK beta, 102%; on MSK1 it was 10%; on TIE2, 17%. In addition, the remaining activity at 1 µM at LKB1 came out at 106%. In addition, in the experiment with PHK, the “% Activity Remaining” value is 97%.

As for `Cc1ccc(F)c(S(=O)(=O)Nc2ccc(-c3nc(OC[C@H]4CNCCO4)c4cn[nH]c4n3)cc2)c1` [308-R, reference compound], the remaining activity at 1 µM at PDK1 worked out at 88%; at YES1, 71%; at WNK1 it was 75%; on IKK beta, 67%; at MSK1, 7%; on TIE2, 51%. Also, the remaining activity at 1 µM on LKB1 is 96%. In the experiment on PHK, the “% Activity Remaining” value is recorded as 83%.

As for `Cc1ccc(F)c(S(=O)(=O)Nc2ccc(-c3nc(OC[C@H]4CN(CCCCCCOCCOCCOCC(=O)N[C@H](C(=O)N5C[C@H](O)C[C@H]5C(=O)NCc5ccc(-c6scnc6C)cc5)C(C)(C)C)CCO4)c4cn[nH]c4n3)cc2)c1` [SGK3-PROTAC1], the remaining activity at 1 µM at PDK1 (1 µM) amounted to 99%; at YES1 (1 µM), 108%; at WNK1 (1 µM), 94%; on IKK beta (1 µM), 100%; on MSK1 (1 µM) it was 50%; at TIE2 (1 µM), 64%. Besides, the remaining activity at 1 µM at LKB1 (1 µM) came out at 105%. In the experiment on PHK, the “% Activity Remaining” value amounted to 113%.

`Cc1ccc(F)c(S(=O)(=O)Nc2ccc(-c3nc(OC[C@H]4CN(CCCCCCOCCOCCOCC(=O)N[C@H](C(=O)N5C[C@@H](O)C[C@H]5C(=O)NCc5ccc(-c6scnc6C)cc5)C(C)(C)C)CCO4)c4cn[nH]c4n3)cc2)c1` [cisSGK3-PROTAC1]: the remaining activity at 1 µM at PDK1 (1 µM) was determined as 87%; at YES1 (1 µM) it was 105%; at WNK1 (1 µM) it was 97%; on IKK beta (1 µM), 101%; at MSK1 (1 µM) it was 56%; at TIE2 (1 µM), 81%. Moreover, at LKB1 (1 µM), the remaining activity at 1 µM came to 112%. In addition, in the experiment on PHK, the “% Activity Remaining” value is recorded as 122%.
